Assays:
GGEc = molecular target: T1, GGEc (Drosophila melanogaster, UniProt P34021); assay: GGEc chimera (GR amino terminus and DBD, EcR LBD) with RXR in CHO cells; assay type: cell-based
T1 construct: were replaced by EcR LBD amino acids (EcR amino acids 329 to 878); expressed in transfected cells; host or cells: CHO
T1 sequence (P34021 329-878): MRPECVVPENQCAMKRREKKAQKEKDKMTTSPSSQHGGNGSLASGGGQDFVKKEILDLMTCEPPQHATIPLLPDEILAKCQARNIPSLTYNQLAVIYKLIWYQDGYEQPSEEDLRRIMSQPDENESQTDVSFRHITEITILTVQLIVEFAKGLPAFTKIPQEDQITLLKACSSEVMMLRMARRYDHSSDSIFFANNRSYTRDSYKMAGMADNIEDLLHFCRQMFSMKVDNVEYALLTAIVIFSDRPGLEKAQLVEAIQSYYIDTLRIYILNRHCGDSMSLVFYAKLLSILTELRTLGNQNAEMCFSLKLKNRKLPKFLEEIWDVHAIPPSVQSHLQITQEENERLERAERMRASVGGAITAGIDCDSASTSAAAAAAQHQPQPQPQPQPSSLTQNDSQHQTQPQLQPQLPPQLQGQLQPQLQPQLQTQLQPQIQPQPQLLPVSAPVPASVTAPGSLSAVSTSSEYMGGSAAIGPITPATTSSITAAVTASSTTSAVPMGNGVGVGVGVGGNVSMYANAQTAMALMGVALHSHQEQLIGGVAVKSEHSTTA
Text: For these experiments, the luciferase reporter construct was used. To obviate influences from other transcription factors, results were normalized using a reporter plasmid from which CAT expression is driven by a minimal promoter consisting of dimerized GREs linked upstream of a 13 base pair TATA box DNA element derived from the adenovirus E1B gene.
In this experiment, GGEc and RXR were transfected into CHO cells with either a CAT or a luciferase reporter plasmid containing 1.5 kilobase pairs of the glucocorticoid-inducible mouse mammary tumor virus (MTV) promoter.
In these experiments, CHO cells were transfected with a GGEc-expressing plasmid, a mouse RXRα expression plasmid, and an adenovirus E1b TATA-(GRE)2-CAT reporter plasmid. The GGEc plasmid was eliminated from DNA mixtures added to cells transfected in parallel. CAT activities were measured from lysates of cells from triplicate wells treated with ethanol vehicle, juvocimene (20 μM), muristerone A (0.2 μM), or both.
In these experiments, CHO cells were transfected with DNAs as described above but ubiquinone-2 (10 μM) was substituted for juvocimene.

FXR = molecular target: T2, FXR (Rattus norvegicus, UniProt Q62735); assay: cell-based
T2 sequence (Q62735 1-469): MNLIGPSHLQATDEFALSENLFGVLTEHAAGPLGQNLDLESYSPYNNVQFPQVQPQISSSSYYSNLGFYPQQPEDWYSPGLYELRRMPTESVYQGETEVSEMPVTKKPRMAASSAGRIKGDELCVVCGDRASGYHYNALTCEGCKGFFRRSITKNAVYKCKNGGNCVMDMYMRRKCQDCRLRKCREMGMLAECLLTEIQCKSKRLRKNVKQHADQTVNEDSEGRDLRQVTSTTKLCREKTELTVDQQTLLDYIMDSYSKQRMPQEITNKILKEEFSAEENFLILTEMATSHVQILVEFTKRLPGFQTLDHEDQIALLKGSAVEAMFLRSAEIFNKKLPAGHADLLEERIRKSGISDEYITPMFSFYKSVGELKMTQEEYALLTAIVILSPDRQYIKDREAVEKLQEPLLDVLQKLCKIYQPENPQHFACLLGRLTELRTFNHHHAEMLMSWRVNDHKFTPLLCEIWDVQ
T2 sequence (P28700 1-467 partner): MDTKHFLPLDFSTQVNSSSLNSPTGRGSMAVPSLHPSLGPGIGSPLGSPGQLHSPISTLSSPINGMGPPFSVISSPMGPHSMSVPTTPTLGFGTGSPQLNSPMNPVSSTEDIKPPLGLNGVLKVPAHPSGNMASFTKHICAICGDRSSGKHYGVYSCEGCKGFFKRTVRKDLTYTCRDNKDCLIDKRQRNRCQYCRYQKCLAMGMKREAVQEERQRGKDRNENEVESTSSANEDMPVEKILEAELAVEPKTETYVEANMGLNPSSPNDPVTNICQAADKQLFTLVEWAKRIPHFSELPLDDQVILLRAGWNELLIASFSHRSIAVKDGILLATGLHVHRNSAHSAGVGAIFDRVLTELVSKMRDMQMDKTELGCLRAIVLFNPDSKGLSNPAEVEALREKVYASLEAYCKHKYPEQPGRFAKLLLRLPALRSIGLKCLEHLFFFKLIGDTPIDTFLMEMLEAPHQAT
How it was run: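 CHO cells co-transfected with FXR, mouse RXRα and a (EcRE)5-ΔMTV-CAT reporter, with β-galactosidase for normalization. An RXR-dependent CRBPII-CAT reporter was run in parallel. Cells were exposed to candidate juvenoids for 24 h; CAT activity normalized to β-gal and expressed as fold induction over vehicle controls.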

GRdEcR/RXR = molecular target: T3, GRdEcR/RXR (Drosophila melanogaster, UniProt P34021); assay: GRdEcR (GEcEc) chimera with RXR, (EcRE)5-ΔMTV reporter in CHO cells; assay type: cell-based; conditions: 25 μM insecticide; 10 nM MUR
T3 construct: ligation of a Not I-Bam HI fragment containing the DBD and LBD of a modified EcR cDNA, EcRnx; expressed in transfected cells; host or cells: CHO
T3 sequence (P34021 259-878 V259R/Q260P/E261P/P331L limits assumed): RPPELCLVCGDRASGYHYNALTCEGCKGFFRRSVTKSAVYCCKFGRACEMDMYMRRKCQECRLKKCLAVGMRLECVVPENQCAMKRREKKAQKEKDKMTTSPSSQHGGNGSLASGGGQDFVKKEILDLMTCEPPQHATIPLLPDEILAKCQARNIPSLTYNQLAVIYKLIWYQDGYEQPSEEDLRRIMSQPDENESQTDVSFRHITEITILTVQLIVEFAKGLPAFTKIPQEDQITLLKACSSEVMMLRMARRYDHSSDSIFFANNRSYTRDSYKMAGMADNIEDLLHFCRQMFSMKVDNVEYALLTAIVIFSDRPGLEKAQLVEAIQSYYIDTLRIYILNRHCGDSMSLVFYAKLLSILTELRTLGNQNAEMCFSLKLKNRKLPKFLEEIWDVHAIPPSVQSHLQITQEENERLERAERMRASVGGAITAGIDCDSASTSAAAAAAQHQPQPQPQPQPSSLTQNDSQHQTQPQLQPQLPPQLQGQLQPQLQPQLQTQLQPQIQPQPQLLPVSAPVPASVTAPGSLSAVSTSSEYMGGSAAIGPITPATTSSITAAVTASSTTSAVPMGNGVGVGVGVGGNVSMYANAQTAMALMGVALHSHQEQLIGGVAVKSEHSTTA
T3 sequence (P28700 1-467 partner): T2 sequence (P28700 1-467 partner)
Protocol: These experiments employed a mammalian cell culture system using Chinese hamster ovary cells (CHO) to evaluate the transcriptional function of Drosophila melanogaster EcR and USP using methods described previously (U.S. Patent Application Publication No: 2005/0049230; Henrich et al, 2003). Cells were seeded in 6-well polypropylene culture plates (Falcon) with 10^5 cells per well on the day prior to transfection. Transfection was subsequently performed using either calcium phosphate (Kitareewan et al., 1996, Mol. Biol. Cell, 7:1153-1196) or a GenePorter reagent (Gene Therapy Systems, Inc; San Diego, Calif.) following manufacturer's protocols. Each well received 1.25 μg of (EcRE)5-ΔMTV-CAT (five copies of the hsp27 EcRE inserted into an mouse mammary tumor virus (MTV) promoter upstream of the chloramphenicol acetyltransferase (CAT) gene) or (EcRE)5-ΔMTV-LUC (the same promoter attached to firefly luciferase), 1.25 μg of pCH111 (SV40 early promoter linked to the β-galactosidase gene) to normalize CAT activity, and 0.25 μg of each expression plasmid (EcR, FXR, RXR, USP) that was tested. The cells were incubated with plasmid DNA for seven hours and then washed with 1×PBS. Muristerone A (murA; Alexis Biochemicals) or 20-hydroxyecdysone (20E; Sigma) dissolved in ethanol to a concentration of 10 mM was diluted as necessary to the final assay concentration (FAC) in 2 ml of fresh incubation medium that was then applied to the cells. Similarly, JHIII (Sigma) was dissolved in dimethyl sulfoxide (DMSO) to a concentration of […] and diluted into the incubation medium to its final assay concentration (20, 40, 80, 160 μM). […] A corresponding volume of ethanol and DMSO were added to control cells for all experiments. For all experiments, the cells were allowed to incubate with the medium for 24 hours before collection and cell lysates were prepared by described methods (Kitareewan et al., 1996). Both β-galactosidase and CAT reporter activity were measured based on previously used methods (Kitareewan et al, 1996). Luciferase assays using luciferrin followed the specifications of the manufacturer.
Transcriptional activity, measured as ^14C-chloramphenicol counts (for measuring CAT activity) or relative luciferase activity (RLU) was quantified for each cell lysate. The counts were then normalized by adjusting for differences in β-galactosidase activity, since β-galactosidase expression is controlled by a constitutive promoter and provides an estimate of cell mass. Data were normalized as fold-induction based on differences in reporter gene activity between hormonally treated and control cells.
In an initial series of studies, a GRdEcR chimera that consists of the rat glucocorticoid receptor (GR) activation domain attached to the EcR DBD and LBD (FIG. 1) was cotransfected along with mRXRα into CHO cells. The response of transfected cells to murA was measured using a (EcRE)5-ΔMTV-CAT reporter plasmid that carries five tandem repeats of the hsp27 EcRE linked to the MTV (mouse mammary tumor virus) promoter and the chloramphenicol acetyltransferase gene (CAT).
The prominent candidate for this JH-responsive macromolecule in insects is the structurally-related ecdysone receptor (EcR). Like FXR, EcR heterodimerizes with RXR and binds to the hsp27 ecdysone-responsive DNA element (Forman et al., 1995), but distinctively activates transcription in response to muristerone A (MurA or MUR), a synthetic ecdysone (Yao et al., 1992). […] In the experiments shown in FIG. 15A, muristerone A (MUR) was added at the indicated doses in ethanol vehicle, and increasing amounts of JH III (12, 25, or 50 μM) were added (underlying triangles). Numbers over bars indicate the ratio of the GEcEc-dependent activity produced by 50 μM JH III in the presence of the indicated dose of MUR to the activity produced by MUR alone. Relative light units (RLU) from firefly luciferase in cell lysates are expressed relative to renilla luciferase (Promega).

insect = conditions: from Schneiderman and Gilbert, Science 143; cited from earlier work
tobacco hornworm larvae = conditions: cited from earlier work

Molecule: COC1=C(OC)C(=O)C(C/C=C(\C)CCC=C(C)C)=C(C)C1=O [U2, ubiquinone-2]
- GGEc-dependent activity increase over MUR (GGEc; 10 μM ubiquinone-2, muristerone A): 7 times
- FXR-dependent activity, induction (FXR; dose not stated): 7 fold

Molecule: CCOP(=S)(OCC)Oc1nc(Cl)c(Cl)cc1Cl [chlorpyrifos]
- FXR-dependent activity, induction (FXR; 25 μM): potencies and efficacies like farnesol
- GEcEc-dependent activity, insecticide plus MUR over MUR alone (GRdEcR/RXR): nine times

Molecule: CCOP(=S)(OCC)Oc1ccc2c(C)c(Cl)c(=O)oc2c1 [coumaphos]
- GEcEc-dependent activity, insecticide plus MUR over MUR alone (GRdEcR/RXR): between two and three times

Molecule: CCOP(=S)(OCC)Oc1cc(C)nc(C(C)C)n1 [diazinon]
- GEcEc-dependent activity, insecticide plus MUR over MUR alone (GRdEcR/RXR): between two and three times

Molecule: C=CC(C)(O)CCC=C(C)CCC=C(C)C (stereo not shown) [nerolidol]
- GGEc transcription with compound plus MUR relative to MUR alone (GGEc; 50 μM compound, 0.2 μM MUR): between two and four times more
- JH ACTIVITY (units/g) (insect): 8.9 units/g
- EC50 (FXR): 15 µM
- FXR-dependent CAT activity, induction (FXR; 50 μM): 9 fold
- FXR ACTIVITY (fold-induction) (FXR; final dose of 50 ∝M, 1 = induction less than 2-fold below cytotoxic doses): 9 fold-induction

Molecule: CC1(C)C(C=C(Cl)Cl)C1C(=O)OCc1cccc(Oc2ccccc2)c1 (stereo not shown) [permethrin]
- GEcEc-dependent activity, insecticide plus MUR over MUR alone (GRdEcR/RXR): between two and three times

Molecule: Cn1c(=O)c2[nH]cnc2n(C)c1=O [theophylline]
- concentration in tobacco hornworm larvae (tobacco hornworm larvae; three days after eating tomato leaves sprayed with 1% theophylline): 4000 µM
- reduction of leaf consumption (tobacco hornworm larvae; tomato leaves sprayed with 1% theophylline): by half
- FXR-dependent activity, induction (FXR; 3 mM): 12 fold
- FXR ACTIVITY (fold-induction) (FXR; dose 3000 μM): 12 fold-induction
- FXR-dependent activity, induction (FXR; theophylline (3 mM) mixed with 8-Br-cAMP (1 mM)): more than 100 fold

Molecule: precocene
- inhibition of FXR-dependent activity in the CHO cell-based assay (FXR): did not inhibit
- GEcEc-dependent activity, insecticide plus MUR over MUR alone (GRdEcR/RXR): between two and three times

Reference: US8637237B2, “Methods, compositions, and systems for the identification of species-specific or developmental stage-specific insecticides” (The University of North Carolina at Greensboro, priority 2003, dated 2014)
